Source: PubChem BioAssay (NCI)
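Test compounds were applied to cells in 96-well plates for 48 hours at 5 doses. The concentration for 50% growth inhibition is given as GI50. TGI denotes the concentration required for complete inhibition of growth.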

How the values were obtained:
Assay in all cases: NCI-60 cell line screen, 48 h
[1] = system: LOX IMVI melanoma
[2] = system: MALME-3M melanoma
[3] = system: RPMI-8226 leukemia
[4] = system: T-47D breast
[5] = system: CCRF-CEM leukemia
[6] = system: SF-268 CNS
[7] = system: KM12 colon
[8] = system: NCI/ADR-RES ovarian
[9] = system: IGROV1 ovarian
[10] = system: SNB-19 CNS

Row | Compound | TGI [1] [µM] | TGI [2] [µM] | TGI [3] [µM] | TGI [4] [µM] | TGI [5] [µM] | TGI [6] [µM] | TGI [7] [µM] | TGI [8] [µM] | TGI [9] [µM] | TGI [10] [µM] | GI50 [1] [µM] | GI50 [6] [µM] | GI50 [7] [µM] | GI50 [8] [µM] | GI50 [9] [µM] | GI50 [10] [µM]
1 | O=C(NCc1cccc2ccccc12)N/N=C\c1ccc(Cl)cc1 | > 100 | > 100 | > 100 | > 100 | > 100 | > 100 | > 100 | > 100 | > 100 | > 100 | – | – | – | – | – | –
2 | Cc1cc(S(=O)(=O)Nc2nc(N)nc(N(C)C)n2)c(SCC(=O)O)cc1Cl | > 10 | > 10 | > 10 | > 10 | > 10 | > 10 | > 10 | > 10 | > 10 | > 10 | – | – | – | – | – | –
3 | CCOC(=O)C(NC(=O)c1ccccc1)(N1CCOCC1)C(F)(F)F (stereo unspecified) | > 100 | > 100 | > 100 | > 100 | > 100 | > 100 | > 100 | > 100 | > 100 | > 100 | – | – | – | – | – | –
4 | COc1cc2cc(C(=O)N3CC(CCl)c4c3cc(N)c3ccccc43)[nH]c2c(OC)c1OC (stereo unspecified) | 0.0103 | < 0.01 | < 0.0107 | > 100 | < 0.01 | < 0.01 | 0.0207 | < 0.01 | 0.0401 | 10.5 | – | – | – | – | – | –
5 | COc1ccc(C2C3COc4ccccc4C3=NN2c2ccccc2)cc1 (stereo unspecified) | > 100 | > 100 | > 100 | > 100 | > 100 | > 100 | > 100 | > 100 | > 100 | > 100 | – | – | – | – | – | –
6 | Cc1ccc(NC(=O)CSc2nc(=O)[nH]c3nc[nH]c23)cc1 | > 100 | > 100 | > 100 | > 100 | > 100 | > 100 | > 100 | > 100 | > 100 | > 100 | – | – | – | – | – | –
7 | COC(=O)c1cnc(Cl)cn1 | > 100 | > 100 | 59 | > 100 | > 100 | > 100 | > 100 | > 100 | 97.1 | > 100 | – | – | – | – | – | –
8 | CCCCCCCCCCCCCCCC(=O)N(CCCCCCCCCCC(=O)O)CC(O)C(O)C(OC1OC(CO)C(O)C(O)C1O)C(O)CO (stereo unspecified) | 35.1 | 36.3 | 49.8 | > 100 | 45.7 | 48.9 | 34 | 61.1 | > 100 | 52.9 | – | – | – | – | – | –
9 | O=C(N/N=C(/COc1ccc([N+](=O)[O-])cc1)N=Cc1ccncc1)c1ccncc1 | > 100 | > 100 | > 100 | > 100 | > 100 | > 100 | > 100 | > 100 | > 100 | > 100 | – | – | – | – | – | –
10 | O=C(O)CC1NCc2cc3ccccc3nc21 (stereo unspecified) | > 100 | > 100 | > 100 | > 100 | > 100 | > 100 | > 100 | > 100 | > 100 | > 100 | – | – | – | – | – | –
11 | Nc1ccc(C(=O)c2cn(CCN3CCOCC3)c3ccccc23)c2ccccc12 | 73.1 | > 100 | > 100 | 72.8 | 45.3 | > 100 | > 100 | 65.3 | 52.3 | > 100 | – | – | – | – | – | –
12 | C=C1C(=O)O[C@@H]2C[C@]3(C)CC[C@]4(C)[C@H](CC[C@@H]5[C@@]6(C)CCC(=O)C(C)(C)[C@@H]6CC[C@]54C)[C@H]3[C@H]12 | 29.6 | 29.7 | 5.8 | 34 | 6.14 | 46.1 | 42.8 | 66.7 | 39.2 | > 60.6 | – | – | – | – | – | –
13 | O=C1Nc2ccc(Cl)cc2/C1=C\c1c(Cl)nc2sccn12 | > 100 | > 100 | > 100 | > 100 | 62.3 | > 100 | 23.4 | 17.6 | > 100 | > 100 | – | – | – | – | – | –
14 | CCCCCCCCCCC1OC([C@@H](O)CC[C@H](O)C2CC[C@@H](CCCCCCCC(O)CC3=CC(C)OC3=O)O2)CCC1O (stereo partly specified) | > 12.5 | > 25 | 15.4 | > 25 | > 25 | > 25 | > 25 | > 25 | > 25 | > 25 | 1.71 | 23.6 | 10.3 | 6.4 | 10.6 | 2.9
15 | C[N+]1(CCCl)CC[N+](C)(CCCl)CC1 (stereo unspecified) | > 100 | > 100 | > 100 | > 100 | > 100 | > 100 | > 100 | > 100 | > 100 | > 100 | – | – | – | – | – | –
16 | Cc1c2c(OCCN3CCCCC3)nn(C)c(=O)c2c(C)n1-c1ccccc1 | 51.1 | 35.3 | 95.1 | > 100 | > 100 | > 100 | > 100 | > 100 | > 100 | > 100 | – | – | – | – | – | –
17 | CCCCON1C[C@H](OC(C)=O)C(OC(C)=O)[C@H](OC(C)=O)C1 (stereo partly specified) | > 100 | > 100 | > 100 | > 100 | > 100 | > 100 | > 100 | > 100 | > 100 | > 100 | – | – | – | – | – | –
18 | CC(=O)OCC1OC(Oc2cc(C)c(O)cc2C/C=C(\C)CC/C=C(\C)CC(=O)CC(C)C)C(O)C(OC(C)=O)C1OC(C)=O (stereo unspecified) | 32.7 | > 50 | 21.4 | 27.3 | 22.3 | > 50 | 29.4 | 31.9 | > 50 | > 50 | – | – | – | – | – | –
